Values of other authors as cited in paper PMC8450225 (Bioorganic & Medicinal Chemistry, 2021).
Read-outs that look alike come from different tables or passages of the source. Primed or numbered codes have the meaning given here. Bz′ = not defined here

Experiments:
[1] = tested on: dengue serotype 2; conditions: at 1 µM concentration, HuH-7 and K562 cell lines
[2] = tested on: HuH-7 cells; conditions: 1 µM, three days of incubation on HuH-7 cells, Alamar Blue
[3] = tested on: DENV NS2B-NS3 pro; conditions: 50 µM substrate concentration and 50 µM compound concentration
[4] = tested on: WNV NS2B-NS3 pro; conditions: 50 µM substrate concentration and 25 µM compound concentration
[5] = tested on: DENV2 pro
[6] = tested on: DENV2; conditions: DENV2 viral replication assay
[7] = tested on: DENV2 pro; remark: listed apart in the source
[8] = tested on: DENV 1–4 pro; conditions: range over DENV 1–4 pro
[9] = tested on: DENV2; conditions: DENV2 replication inhibition, BHK21 cells
[10] = tested on: DENV2 pro; remark: listed apart in the source
[11] = tested on: DENV2; conditions: antiviral activity against DENV2
[12] = tested on: DENV2 pro; remark: listed apart in the source
[13] = biological target: NS2B-NS3 pro; conditions: read-out: Ki (Reported)
[14] = tested on: DENV2 pro; remark: listed apart in the source
[15] = tested on: DENV; conditions: at 100 µM

O=C1c2c(O)ccc([N+](=O)[O-])c2C(=O)c2c([N+](=O)[O-])ccc(O)c21 [ARDP0006]
reduction of dengue viral titer [1]: > 1 log PFU/mL | cytotoxicity [2]: non-cytotoxic

CN(C)C(=O)COC(=O)Cc1ccc(OC(=O)c2ccc(NC(=N)N)cc2)cc1 [Camostat]
Percentage inhibition of NS2B-NS3 pro, DENV [3]: 19.6% | Percentage inhibition of NS2B-NS3 pro, WNV [4]: 12.6%

CC(=O)O[C@H]1CC(C)(C)C(=C=C/C(C)=C/C=C/C=C/C=C(C)/C=C2C=C(/C=C/[C@@]34O[C@]3(C)C[C@@H](O)CC4(C)C)C(=O)O/2)[C@](C)(O)C1 [Compound 35, peridinin]
EC50 [5]: 8.5 ± 0.41 µM

O=C(Nc1nc2cc(O)c(O)cc2s1)c1ccccc1Sc1ccc(C(F)(F)F)cc1 [Compound 38]
EC50 [6]: > 3 µM

O=C(Nc1nc2cc(O)c(O)cc2s1)c1ccccc1Oc1ccc2cc(O)ccc2c1 [Compound 39]
IC50 [7]: 4.2 ± 0.44 µM

COc1cc2nc(NC(=O)c3ccccc3Sc3ccc(C(F)(F)F)cc3)sc2cc1OC [Compound 40]
IC50 [7]: inactive

Cc1ccc(C2=NC(=O)/C(=C/c3cc(O)c(O)c(Br)c3)S2)cc1 [Compound 42]
IC50 [8]: 2.94 to 4.06 µM | EC50 [9]: 6.9 ± 0.6 µM

Cc1ccc(C(=O)c2cc(O)c(O)c([N+](=O)[O-])c2)cc1 [Compound 43]
IC50 [8]: 0.64 to 1.15 µM | EC50 [9]: 2.29 µM

O=C(OC[C@H]1O[C@@H](OC(=O)c2cc(O)c(O)c(OC(=O)c3cc(O)c(O)c(O)c3)c2)[C@H](OC(=O)c2cc(O)c(O)c(OC(=O)c3cc(O)c(O)c(O)c3)c2)[C@@H](OC(=O)c2cc(O)c(O)c(OC(=O)c3cc(O)c(O)c(O)c3)c2)[C@@H]1OC(=O)c1cc(O)c(O)c(OC(=O)c2cc(O)c(O)c(O)c2)c1)c1cc(O)c(O)c(OC(=O)c2cc(O)c(O)c(O)c2)c1 [Compound 44]
IC50 [8]: 0.13 to 0.77 µM

CCc1ccc(NS(=O)(=O)c2ccc(N3C(=O)c4ccccc4C3=O)cc2)cc1 [Compound 46]
IC50 [10]: 48.2 µM

CCCCC1C(C(=O)N(C)OC)C(c2ccccc2)CCN1C(=O)OC(C)(C)C (stereo not shown) [Compound 51]
EC50 [11]: 2.4 µM

Cc1cc(O)c(S(=O)(=O)O)cc1Cc1cc(S(=O)(=O)O)c(O)c(Cc2cc(S(=O)(=O)O)c(O)cc2C)c1C [Compound 60]
IC50 [12]: IC50 = 0.48 μg/mL

Ac-RTSKKR-NH2
Ki [13]: 12.1 µM

BZ-Ala-Lys-Arg-Arg-H ({Bz′}-AKRR-aldehyde; also: C-terminal aldehyde)
Ki [13]: 5.3 µM

Bz-Arg-Lys-(4-CF3-benzyl ether)-D-Phg-NH2 [Compound 7]
IC50 [14]: 0.069 µM

Bz-Arg-Lys-(4-benzyloxy)-D-Phg-NH2
IC50 [14]: 0.367 µM

Bz-Arg-Lys-Phg-NH2 [reference compound]
IC50 ([14]; starting tripeptide): 3.32 µM

kaempferol-3-O-rutinoside [Compound 24]
DENV inhibition [15]: 77.7%
